Measurements published in patent US7582676B2, “2-phenylpyran-4-one derivatives as selective COX-2 inhibitors” (Laboratorios Almirall, S.A., priority 2003, dated 2009).

Legend:
[1] = target: T1, COX-2 (Homo sapiens, UniProt P35354); experiment: COX-2 activity in human whole blood (PGE2, LPS induced); format: cell-based; details: for IC50: LPS 10 μg/ml, 24 h at 37° C., PGE2 by EIA; for Ratio COX-1/COX-2: ratio of COX-1/COX-2 IC50 values
T1 construct: in the presence of LPS (10 μg/ml) for 24 h at 37° C. in order to induce the COX-2 expression; endogenous in cells; host or cells: human whole blood of healthy volunteers, LPS-stimulated for 24 h; PGE2 read-out
T1 sequence (P35354 18-604): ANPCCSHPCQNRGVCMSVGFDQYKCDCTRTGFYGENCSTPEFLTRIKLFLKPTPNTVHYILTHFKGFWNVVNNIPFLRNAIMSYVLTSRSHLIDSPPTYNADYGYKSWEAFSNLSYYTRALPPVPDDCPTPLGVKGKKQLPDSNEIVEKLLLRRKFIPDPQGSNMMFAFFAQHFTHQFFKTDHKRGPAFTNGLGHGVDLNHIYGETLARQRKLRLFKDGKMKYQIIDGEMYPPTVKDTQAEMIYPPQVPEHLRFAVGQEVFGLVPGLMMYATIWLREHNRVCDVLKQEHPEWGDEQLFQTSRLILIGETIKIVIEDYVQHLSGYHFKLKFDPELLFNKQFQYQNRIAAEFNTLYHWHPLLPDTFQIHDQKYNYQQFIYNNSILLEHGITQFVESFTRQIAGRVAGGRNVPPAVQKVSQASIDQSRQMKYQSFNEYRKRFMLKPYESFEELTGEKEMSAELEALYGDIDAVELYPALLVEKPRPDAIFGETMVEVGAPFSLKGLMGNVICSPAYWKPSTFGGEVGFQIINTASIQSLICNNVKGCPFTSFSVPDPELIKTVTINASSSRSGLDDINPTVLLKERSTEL
Procedure: (§1) COX-1 and COX-2 Activities in Human Whole Blood
For the COX-2 activity determination, 500 μl aliquots of blood were incubated in the presence of LPS (10 μg/ml) for 24 h at 37° C. in order to induce the COX-2 expression (Patriagnani et al., J. Pharm. Exper. Ther. 271; 1705-1712 (1994)). Plasma was separated by centrifugation (10 min at 13000 rpm) and kept at −30° C. until PGE2 levels were measured using an enzyme immunoassay kit (EIA). […] IC50 values were obtained by non-linear regression using InPlot, GraphPad software on an IBM computer.

[2] = target: T2, COX-1 (Homo sapiens, UniProt P23219); experiment: COX-1 activity in human whole blood (TXB2, calcium ionophore A23187); format: cell-based; details: 24 h at 37° C., A23187 25 μM, TXB2 by EIA
T2 construct: Fresh blood from healthy volunteers; endogenous in cells; host or cells: human whole blood of healthy volunteers, stimulated with calcium ionophore A23187; TXB2 read-out
Procedure: as §1
Fresh blood from healthy volunteers who had not taken any non-steroidal anti-inflammatory drugs for at least 7 days prior to blood extraction was collected in heparinized tubes (20 units of heparin per ml). For the COX-1 activity determination, 500 μl aliquots of blood were incubated with either 5 μl vehicle (dimethylsulphoxide) or 5 μl of a test compound for 24 h at 37° C. Calcium ionophore A23187 (25 μM) was added 20 min before stopping the incubation. Plasma was separated by centrifugation (10 min at 13000 rpm) and kept at −30° C. until TXB2 levels were measured using an enzyme immunoassay kit (EIA).
The effect of the compounds was evaluated by incubating each compound at five to six different concentrations with triplicate determinations. IC50 values were obtained by non-linear regression using InPlot, GraphPad software on an IBM computer.

T2 sequence (P23219 24-599): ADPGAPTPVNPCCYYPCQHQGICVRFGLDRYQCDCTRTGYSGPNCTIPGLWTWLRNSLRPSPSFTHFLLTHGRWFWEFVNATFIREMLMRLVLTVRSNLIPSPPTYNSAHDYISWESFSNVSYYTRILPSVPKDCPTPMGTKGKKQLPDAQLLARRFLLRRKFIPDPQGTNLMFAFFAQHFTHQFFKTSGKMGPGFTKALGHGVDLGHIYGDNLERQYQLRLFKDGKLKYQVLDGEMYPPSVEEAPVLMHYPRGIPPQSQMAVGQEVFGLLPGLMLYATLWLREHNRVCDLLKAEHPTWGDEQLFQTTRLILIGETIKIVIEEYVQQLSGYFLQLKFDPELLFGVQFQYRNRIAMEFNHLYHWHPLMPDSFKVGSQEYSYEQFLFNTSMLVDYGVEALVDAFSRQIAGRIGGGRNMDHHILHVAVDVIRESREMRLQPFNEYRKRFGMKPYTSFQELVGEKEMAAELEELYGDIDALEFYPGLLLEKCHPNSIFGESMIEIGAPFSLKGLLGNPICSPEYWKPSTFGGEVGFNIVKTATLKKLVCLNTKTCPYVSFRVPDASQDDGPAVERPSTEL

| Compound | IC50 [1] [nM] | Ratio COX-1/COX-2 [1] | IC50 [2] [nM] |
| --- | --- | --- | --- |
| Cc1cc(=O)c(Oc2ccc(F)cc2F)c(-c2ccc([S+](C)[O-])cc2)o1 (racemic) [Example 1, 3-(2,4-Difluorophenoxy)-6-methyl-2-[4-(methylsulfinyl)phenyl]-4H-pyran4-one] | 960 | 104 |  |
| Cc1cc(=O)c(Oc2ccc(F)cc2F)c(-c2ccc([S+](C)[O-])cc2)o1 (single isomer, unassigned; enantiomer 1a) [Example 2, 3-(2,4-Difluorophenoxy)-6-methyl-2-[4-(methylsulfinyl)phenyl]-4H-pyran-4-one-Enantiomer 1a] | 2100 | 48 |  |
| Cc1cc(=O)c(Oc2ccc(F)cc2F)c(-c2ccc([S+](C)[O-])cc2)o1 (single isomer, unassigned; enantiomer 1b) [Example 3, 3-(2,4-Difluorophenoxy)-6-methyl-2-[4-(methylsulfinyl)phenyl]-4H-pyran4-one-Enantiomer 1b] | 270 | 321 | 86600 |

Now from value to molecule:

| IC50 [1] [nM] | Ratio COX-1/COX-2 [1] | IC50 [2] [nM] | Compound |
| --- | --- | --- | --- |
| 570 | 135 | 77000 | Cc1cc(=O)c(Oc2ccc(Br)cc2F)c(-c2ccc([S+](C)[O-])cc2)o1 (racemic) [Example 7, 3-(4-Bromo-2-fluorophenoxy)-6-methyl-2-[4-(methylsulfinyl)phenyl]-4H-pyran-4-one] |
|  |  | 72900 | Cc1cc(=O)c(Oc2ccc(Cl)cc2F)c(-c2ccc([S+](C)[O-])cc2)o1 (single isomer, unassigned; enantiomer 4a) [Example 5, 3-4-Chloro-2-fluorophonoxy)-6-methyl-2-[4-(methylsuffinyl)phenyl]-4H-pyran-4-one-Enantiomer 4a] |
| 1580 | 20 | 32100 | Cc1cc(=O)c(Oc2ccc(Br)cc2F)c(-c2ccc([S+](C)[O-])cc2)o1 (single isomer, unassigned; enantiomer 7a) [Example 8, 3-4-Bromo-2-fluorophenoxy)-6-methyl-2-[4-methylsulfinyl)phenyl]-4H-pyran4-one-Enantiomer 7a] |
| 170 | 430 | 73100 | Cc1cc(=O)c(Oc2ccc(Br)cc2F)c(-c2ccc([S+](C)[O-])cc2)o1 (single isomer, unassigned; enantiomer 7b) [Example 9, 3-4-Bromo-2-fluorophenoxy)-6-methyl-2-[4-(methylsulfinyl)phenyg]4H-pyran-4-one-Enantiomer 7b] |
